In patent US10066004B2 (ARIZONA CANCER THERAPEUTICS, LLC, priority 2010, dated 2018):
No end group written: not given here.

What was measured:
MDA-MB-468 cells [1] = assay: MTT viability, EJ1 in combination with pathway inhibitors or ROS scavenger; type: cell-based; settings: MDA-MB-468, 20 μmol/l EJ1 plus inhibitor
Procedure: (a) MDA-MB-468 cells were treated with either 20 μmol/l CP (A-D) or 20 μmol/l EJ1 (E-H) for 0 minutes (A, E), 15 minutes (B, F), 60 minutes (C, G), or 16 hours (D, H). Arrows indicate membrane blebs and arrowheads indicate intracellular vacuoles. (b) BxPC3 cells were serum starved overnight, then treated with 20 μmol/l EJ1 and 50 ng/ml Texas-Red-labeled EGF, and imaged for 30 minutes with an Olympus IX71 deconvolution microscope. Panels A-F are bright field images, D′-F′ are red channel images (Texas-Red-labeled EGF). Arrowheads indicate locations of EGF accumulation on membrane protrusions. (c) Diagram depicts Ca^2+/CaM-regulated signaling pathway, and inhibitors acting at different targets are indicated. (d) MDA-MB-468 cells were pretreated with 50 μmol/l W-13 (D-F), 10 μmol/l ML-7 (G-I), or 10 μmol/l Y-27632 (J-L) in complete medium at 37° C. for 30 minutes and then treated with vehicle, 20 μmol/l CP, or 20 μmol/l EJ1 in combination with W-13, ML-7, or Y-27632 in complete medium at 37° C. for 15 minutes. Images represent the bright field images. Arrows indicate membrane blebbing. (e) MDA-MB-468 cells were untreated (UNTX) or treated with water (Vehicle), 20 μmol/l EJ1, 10 μmol/l Y-27632, or 10 μmol/l ML-7 alone or EJ1 in combination with Y-27632 or ML-7, and the viability was assessed by the MTT assay. **P<0.01 (Student's t-test). Error bars, mean±SD. (f) MDA-MB-468 cells were either in serum-free medium (SF) or stimulated with 100 ng/ml EGF (EGF) and then incubated with water (Vehicle), 20 μmol/l CP, 20 μmol/l EJ1, 2 μmol/l ionomycin, 50 μmol/l W-13, 100 μmol/l KN-93, or EJ1 in combination with ionomycin for 15 minutes. Lysates were immunoblotted with antibodies as indicated. (g) Stable, neomycin-selected NIH3T3 cell lines were created, expressing either Rac1 wild-type (Rac1-WT) or Rac1 constitutively active mutant (Rac1-Q61L). Cells were treated with water (Vehicle), 20 μmol/l CP, or 20 μmol/l EJ1, and the viability was assessed by MTT. ***P<0.001 (Student's t-test). Error bars, mean±SD.
(a) MDA-MB-468 cells were incubated in serum-free media with 200 nmol/l MitoTracker Red CMXRos and 5 μg/ml Hoechst 33342 nuclear stain, followed by either 20 μmol/l CP (A-B′) or 20 μmol/l EJ1 (C-D′), and imaged at 0 minutes (A, A′; and C, C′) or at 5 minutes (B, B′; and D, D′). (b) MDA-MB-468 cells were incubated with 1 μmol/l JC-1, followed by 20 μmol/l CP, 20 μmol/l EJ1, or 50 μmol/l CCCP. Results were calculated as the ratio of the 514/590 nm to 514/529 nm fluorescences and the ratio for CP-treated sample was set as 1. *P<0.05, Student's t-test. Error bars, mean±SD. […] Cells were then sorted by flow cytometer and analyzed by Cellquest Pro 4.0 software. The results are expressed as the percentage of DCFH fluorescence-positive cells. *P<0.05, Student's t-test. […]

MDA-MB-468 cells [2] = assay: Membrane blebbing / cell morphology, bright field imaging; type: cell-based; settings: for inhibition of EJ1-induced membrane blebbing: 50 μmol/l W-13, 10 μmol/l ML-7, 10 μmol/l Y-27632 with 20 μmol/l EJ1
Procedure: (a) MDA-MB-468 cells were treated with either 20 μmol/l CP (A-D) or 20 μmol/l EJ1 (E-H) for 0 minutes (A, E), 15 minutes (B, F), 60 minutes (C, G), or 16 hours (D, H). […] (b) BxPC3 cells were serum starved overnight, then treated with 20 μmol/l EJ1 and 50 ng/ml Texas-Red-labeled EGF, and imaged for 30 minutes with an Olympus IX71 deconvolution microscope. Panels A-F are bright field images, D′-F′ are red channel images (Texas-Red-labeled EGF). […] (c) Diagram depicts Ca^2+/CaM-regulated signaling pathway, and inhibitors acting at different targets are indicated. (d) MDA-MB-468 cells were pretreated with 50 μmol/l W-13 (D-F), 10 μmol/l ML-7 (G-I), or 10 μmol/l Y-27632 (J-L) in complete medium at 37° C. for 30 minutes and then treated with vehicle, 20 μmol/l CP, or 20 μmol/l EJ1 in combination with W-13, ML-7, or Y-27632 in complete medium at 37° C. for 15 minutes. Images represent the bright field images. […] Error bars, mean±SD. (f) MDA-MB-468 cells were either in serum-free medium (SF) or stimulated with 100 ng/ml EGF (EGF) and then incubated with water (Vehicle), 20 μmol/l CP, 20 μmol/l EJ1, 2 μmol/l ionomycin, 50 μmol/l W-13, 100 μmol/l KN-93, or EJ1 in combination with ionomycin for 15 minutes. Lysates were immunoblotted with antibodies as indicated. […] Error bars, mean±SD. (From Hart et al., 2013, Molecular Therapy 21(11):1996-2007, the disclosure of which is incorporated herein in its entirety.)
Ca^2+/CaM signaling regulates many different cellular events, such as membrane dynamics, cell survival, mitochondrial function, and motility. We began by evaluating whether EJ1 was affecting membrane dynamics by treating MDA-MB-468 cells with either CP (FIG. 8) or EJ1 (FIG. 8) and examining cell morphology. […] Ca^2+/CaM signaling regulates many different downstream pathways, such as CaMKII and MLCK. CaMKII regulates cell proliferation, whereas MLCK phosphorylates myosin light chain (MLC) and regulates actinomyosin reorganization during membrane blebbing (as depicted in FIG. 8). To investigate whether EJ1-induced membrane blebbing was through the MLCK pathway, MDA-MB-468 cells were treated with vehicle, CP, or EJ1 alone (A-C) or in combination with the CaM inhibitor W-13 or the MLC phosphorylation inhibitors ML-7 and Y-27632 (D-L).

MDA-MB-468 cells [3] = settings: for inhibitor effect on cell survival after three days of treatment: MDA-MB-468, 20 uM peptide (FIG. 1); for effect on cell viability (MTT): MDA-MB-468, 3 days of treatment (FIG. 6)
Procedure: Inhibitor peptides were evaluated on their ability to inhibit growth of triple-negative breast cancer cells MDA-MB-468 (20 uM peptide treatment). […] SEQ ID NO: 13 is […] SEQ ID NO: 14 is […] SEQ ID NO: 15 is […] SEQ ID NO: 16 is […] SEQ ID NO: 17 is […] SEQ ID NO: 18 is […] SEQ ID NO: 19 is […] SEQ ID NO: 20 is […] SEQ ID NO: 21 is […] SEQ ID NO: 22 is […] SEQ ID NO: 23 is […] SEQ ID NO: 24 is […] SEQ ID NO: 25 is […]
Peptide designations are indicated in the right column. Changes from EJ1 in EJ2-11 are denoted in the second column from the right. (d-j) Cell lines were treated daily with 20 μmol/l EJ1, 20 μmol/l CP, or vehicle (water) for 3 days unless otherwise noted, and cell viability was determined by the MTT assay. Growth rates for vehicle-treated cells were set to 100%, and CP and EJ1 rates were adjusted accordingly. *P<0.05, **P<0.01, ***P<0.001 (Student's t-test). Error bars, mean±SD. (From Hart et al., 2013, Molecular Therapy 21(11):1996-2007, the disclosure of which is incorporated herein in its entirety.)
To do this, we created cell-penetrating peptides to act as dominant-negative “decoys,” thereby inhibiting endogenous jxm interactions. Peptides specific for jxm subdomains were synthesized downstream of the protein transduction domain-4 (PTD4; FIG. 6). Next, the effect of peptide treatment on cell viability was analyzed on the breast cancer cell line MDA-MB-468 by MTT (3-[4,5-dimethylthiazol-2-yl]-2,5-diphenyl tetra-zolium bromide) analysis after 3 days of treatment.
Protein lysate preparation, immunoprecipitation, and western blotting were performed as described previously. For cross-linking, cells were first incubated according to manufacturer instructions with 3 μmol/l DMS, a membrane-permeable, noncleavable, cross-linking agent (Thermo Scientific, Waltham, Mass.). Cells were analyzed both by the MTT assay following manufacturer's instructions (Sigma) and using a U-Quant Spectrophotometer (Bio-TEK Instruments, Winooski, Vt.).

[4] = system: patient-derived glioma lines (BT145, BT147, GB16, GB7, GB42); assay: Viability of patient-derived GBM cells; type: cell-based
Source text: FIG. 13A and FIG. 13B show treatment of patient-derived GBM cells with various EGFR inhibitor peptides.
EGFR is amplified or mutated in more than 40% of glioblastoma multiforme (GBM) tumors. Referring to FIG. 13-14, inhibitor peptides of the present invention were used to treat GBM cells and tumors.

With `Cn1cnc(=N)c2[nH]cnc21` [3-MA] the “effect of co-treatment on EJ1-induced loss of cell viability (MTT)” value (MDA-MB-468 cells [1]) was “not able to rescue”.

`COc1cc2ncnc(Nc3cccc(Cl)c3)c2cc1OC` [AG1478] was tested, and the membrane blebbing (MDA-MB-468 cells [2]; EJ1 20 μmol/l, 15 minutes) was “No membrane blebbing was observed”.

`O=S(=O)(c1cccc2c(I)cccc12)N1CCCNCC1` [ML-7] was tested, and the “inhibition of EJ1-induced membrane blebbing” value (from here on “inhibition”) (MDA-MB-468 cells [2]) was “completely inhibited” and the “effect of co-treatment on EJ1-induced loss of cell viability (MTT)” value (MDA-MB-468 cells [1]) was “significantly reduce the effects of EJ1”.

`NCCCCNS(=O)(=O)c1ccc2c(Cl)cccc2c1` [W-13] was tested, and the “inhibition” value (MDA-MB-468 cells [2]) was “completely inhibited”.

With `C[C@@H](N)[C@H]1CC[C@H](C(=O)Nc2ccncc2)CC1` [Y-27632] the “inhibition” value (MDA-MB-468 cells [2]) was “completely inhibited” and the “effect of co-treatment on EJ1-induced loss of cell viability (MTT)” value (MDA-MB-468 cells [1]) was “significantly reduce the effects of EJ1”.

With “YARAAARQARAFMRDRHIVRDRTLRDLLQERE (Artificial peptide sequence related to EGFR juxtamembrane sequence) [EJ10]” the “inhibitor effect on cell survival after three days of treatment” value (MDA-MB-468 cells [3]) was “almost no inhibitor effect” and the “effect on cell viability (MTT)” value (MDA-MB-468 cells [3]) was “completely ablated the effects on viability”.

In the case of YARAAARQARAFMRQRHIVRQRTLRQLLQERE [EJ11], the “effect on cell viability (MTT)” value (MDA-MB-468 cells [3]) is reported as “only marginally blocked the antiproliferative effects of EJ1”.

For “YARAAARQARAFMRRRHIVRKRTL (Artificial peptide sequence related to EGFR juxtamembrane sequence) [EJ2]”, the “effect on cell viability (MTT)” value (MDA-MB-468 cells [3]) was “partial reduction”.

In the case of “YARAAARQARAIVRKRTLRRLLQERE (Artificial peptide sequence related to EGFR juxtamembrane sequence) [EJ3]”, the “effect on cell viability (MTT)” value (MDA-MB-468 cells [3]) is reported as “partial reduction”.

In the case of “YARAAARQARALLQERELVEPLT (Artificial peptide sequence related to EGFR juxtamembrane sequence) [EJ6]”, the “effect on cell viability (MTT)” value (MDA-MB-468 cells [3]) is reported as “No antiproliferative effect”.

“YARAAARQARARDRHIVRDRTLRD (Artificial peptide sequence related to EGFR juxtamembrane sequence) [nlsCPv4]” was tested, and the “inhibitor effect on cell survival after three days of treatment” value (MDA-MB-468 cells [3]) was “almost no inhibitor effect”.

In the case of “YARAAARQARARRRHIVRKRTLRR (Artificial peptide sequence related to EGFR juxtamembrane sequence) [EJ4]”, the “effect on cell viability (MTT)” value (MDA-MB-468 cells [3]) is reported as “No antiproliferative effect”.

With “YARAAARQARARTLRRLLQERE (Artificial peptide sequence related to EGFR juxtamembrane sequence) [EJ5]” the “effect on cell viability (MTT)” value (MDA-MB-468 cells [3]) was “partial reduction”.

For “control peptide: control peptide compared to stapled EJ1 on patient-derived glioma lines (YARAAARQARAFMRDRHIVRDRTLRDLLQERE; Artificial peptide sequence related to EGFR juxtamembrane sequence) [reference compound]”, the “cell viability of patient-derived glioma lines” value ([4]; BT145 and BT147 (FIG. 13A)) was “no effect on cell viability” and the “cell viability of patient-derived glioma lines” value ([4]; GB16, GB7, GB42 and BT147, 24 hr treatment (FIG. 13B)) was “no effect on cell viability”.
